Measured values as given in patent US8435980B2 (AbbVie Inc., priority 2009, dated 2013).

Target: T1, Cdc7 (BEV coexpressed huCDC7/DBF4) (Homo sapiens, UniProt O00311)
T1 construct: made in house; host or cells: BEV (baculovirus expression vector) co-expression; insect cells are implied but no cell line is named
Assay: Cdc7 enzyme inhibition assay ([33P]ATP, biotinylated peptide substrate, FlashPlate)
Assay type: biochemical
Conditions: for Ki ratio comparisons (Ki Comparative Example/Ki Example): Table 2, Comparative Example lacking the chloro substituent versus the chloro Example
Description: Cdc7 (BEV coexpressed huCDC7/DBF4) is prepared internally. Cdc7 assays are conducted as follows with final concentrations as listed. […] Reactions are quenched after 1 hr by the addition of 90 μL stop buffer (50 mM EDTA, 2M NaCl). […] (Ki) for exemplary compounds.

T1 sequence (O00311 whole entry): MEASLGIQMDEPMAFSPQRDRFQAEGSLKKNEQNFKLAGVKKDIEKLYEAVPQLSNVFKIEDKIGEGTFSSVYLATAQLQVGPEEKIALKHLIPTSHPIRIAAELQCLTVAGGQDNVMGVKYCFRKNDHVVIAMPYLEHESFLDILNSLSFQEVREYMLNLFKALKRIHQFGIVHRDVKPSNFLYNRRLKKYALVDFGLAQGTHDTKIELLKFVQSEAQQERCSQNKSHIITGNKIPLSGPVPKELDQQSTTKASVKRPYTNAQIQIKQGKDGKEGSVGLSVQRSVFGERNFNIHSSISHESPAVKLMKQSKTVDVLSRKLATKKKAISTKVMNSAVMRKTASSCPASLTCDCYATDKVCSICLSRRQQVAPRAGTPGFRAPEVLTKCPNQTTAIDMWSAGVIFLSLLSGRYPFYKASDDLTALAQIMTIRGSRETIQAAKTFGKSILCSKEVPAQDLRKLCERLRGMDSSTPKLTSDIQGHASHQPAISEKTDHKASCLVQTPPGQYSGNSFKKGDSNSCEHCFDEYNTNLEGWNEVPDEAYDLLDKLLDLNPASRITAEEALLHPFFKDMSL
T1 sequence (Q9UBU7 whole entry partner): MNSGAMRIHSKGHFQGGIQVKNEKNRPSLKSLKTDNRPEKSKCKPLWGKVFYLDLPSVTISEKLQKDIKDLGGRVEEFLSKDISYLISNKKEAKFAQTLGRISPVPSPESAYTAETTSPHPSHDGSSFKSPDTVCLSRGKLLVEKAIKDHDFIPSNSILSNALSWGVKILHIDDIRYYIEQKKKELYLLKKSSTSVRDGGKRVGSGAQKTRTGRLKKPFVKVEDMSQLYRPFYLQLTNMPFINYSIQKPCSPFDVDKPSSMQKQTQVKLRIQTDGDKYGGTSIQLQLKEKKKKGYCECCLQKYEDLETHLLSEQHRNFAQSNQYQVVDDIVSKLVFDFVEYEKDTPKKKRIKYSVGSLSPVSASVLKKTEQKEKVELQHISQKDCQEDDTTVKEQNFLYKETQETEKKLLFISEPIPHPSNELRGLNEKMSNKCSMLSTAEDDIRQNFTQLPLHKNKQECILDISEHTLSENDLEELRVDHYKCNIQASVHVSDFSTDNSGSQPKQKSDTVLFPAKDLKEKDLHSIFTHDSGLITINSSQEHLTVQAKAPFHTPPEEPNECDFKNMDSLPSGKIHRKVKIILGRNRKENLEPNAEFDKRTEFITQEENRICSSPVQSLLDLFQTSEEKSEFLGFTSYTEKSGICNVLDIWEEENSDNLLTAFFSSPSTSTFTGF

Structure (SMILES): N#Cc1cc(-c2c[nH]c3ncccc23)cc(N[C@H]2CC[C@H](O)CC2)n1 [Comparative Example 10, 6-[(trans-4-hydroxycyclohexyl)amino]-4-(1H-pyrrolo[2,3-b]pyridin-3-yl)pyridine-2-carbonitrile, reference compound]
- Ki ratio comparisons (Ki Comparative Example/Ki Example): 10

Structure (SMILES): NC(=O)c1cc(-c2c[nH]c3ncccc23)cc(N[C@H]2CC[C@H](O)CC2)n1 [Comparative Example 11, 6-[(trans-4-hydroxycyclohexyl)amino]-4-(1H-pyrrolo[2,3-b]pyridin-3-yl)pyridine-2-carboxamide, reference compound]
- Ki ratio comparisons (Ki Comparative Example/Ki Example): 134

Structure (SMILES): c1cnc2[nH]cc(-c3ccnc(NC4CCCCC4)n3)c2c1 [Comparative Example 12, N-cyclohexyl-4-(1H-pyrrolo[2,3-b]pyridin-3-yl)pyrimidin-2-amine, reference compound]
- Ki ratio comparisons (Ki Comparative Example/Ki Example): 3

Structure (SMILES): N[C@H]1CC[C@H](Nc2nccc(-c3c[nH]c4ncccc34)n2)CC1 [Comparative Example 13, Trans-N-[4-(1H-pyrrolo[2,3-b]pyridin-3-yl)pyrimidin-2-yl]cyclohexane-1,4-diamine, reference compound]
- Ki ratio comparisons (Ki Comparative Example/Ki Example): 12

Structure (SMILES): Clc1cc(-c2c[nH]c3ncccc23)cc(NC2CCCCC2)n1 [Example 1, 6-Chloro-N-cyclohexyl-4-(1H-pyrrolo[2,3-b]pyridin-3-yl)pyridin-2-amine]
- Ki: < 10 nM

Structure (SMILES): Clc1cc(-c2c[nH]c3ncccc23)cc(NCc2ccccc2)n1 [Example 2, N-Benzyl-6-chloro-4-(1H-pyrrolo[2,3-b]pyridin-3-yl)pyridin-2-amine]
- Ki: < 10 nM

Structure (SMILES): C=CCNc1cc(-c2c[nH]c3ncccc23)cc(Cl)n1 [Example 3, N-Allyl-6-chloro-4-(1H-pyrrolo[2,3-b]pyridin-3-yl)pyridin-2-amine]
- Ki: < 10 nM

Structure (SMILES): Clc1cc(-c2c[nH]c3ncccc23)cc(N2CCCCC2)n1 [Example 4, 3-(2-chloro-6-piperidin-1-ylpyridin-4-yl)-1H-pyrrolo[2,3-b]pyridine]
- Ki: 10 to 100 nM

Structure (SMILES): CN(Cc1ccccc1)c1cc(-c2c[nH]c3ncccc23)cc(Cl)n1 [Example 5, N-benzyl-6-chloro-N-methyl-4-(1H-pyrrolo[2,3-b]pyridin-3-yl)pyridin-2-amine]
- Ki: < 10 nM

Structure (SMILES): FC1(F)CN(c2cc(-c3c[nH]c4ncccc34)cc(Cl)n2)C1 [Example 6, 3-[2-chloro-6-(3,3-difluoroazetidin-1-yl)pyridin-4-yl]-1-1H-pyrrolo[2,3-b]pyridine]
- Ki: 10 to 100 nM

Structure (SMILES): Cc1cccc(-c2cc(-c3c[nH]c4ncccc34)cc(Cl)n2)c1C [Example 7, 3-[2-chloro-6-(2,3-dimethylphenyl)pyridin-4-yl]-1H-pyrrolo[2,3-b]pyridine]
- Ki: 10 to 100 nM

Structure (SMILES): Clc1cc(-c2c[nH]c3ncccc23)cc(NC2CCOCC2)n1 [Example 8, 6-chloro-4-(1H-pyrrolo[2,3-b]pyridin-3-yl)-N-tetrahydro-2H-pyran-4-ylpyridin-2-amine]
- Ki: < 10 nM

Structure (SMILES): OC1CCCCC1Nc1cc(-c2c[nH]c3ncccc23)cc(Cl)n1 (stereo not drawn) [Example 9, 2-{[6-chloro-4-(1H-pyrrolo[2,3-b]pyridin-3-yl)pyridin-2-yl]amino}cyclohexanol]
- Ki: < 10 nM

Structure (SMILES): COCCNc1cc(-c2c[nH]c3ncccc23)cc(Cl)n1 [Example 10, 6-chloro-N-(2-methoxyethyl)-4-(1H-pyrrolo[2,3-b]pyridin-3-yl)pyridin-2-amine]
- Ki: < 10 nM

Structure (SMILES): OCCNc1cc(-c2c[nH]c3ncccc23)cc(Cl)n1 [Example 11, 2-{[6-chloro-4-(1H-pyrrolo[2,3-b]pyridin-3-yl)pyridin-2-yl]amino}ethanol]
- Ki: < 10 nM

Structure (SMILES): COCCN(CCOC)c1cc(-c2c[nH]c3ncccc23)cc(Cl)n1 [Example 12, 6-chloro-N,N-bis(2-methoxyethyl)-4-(1H-pyrrolo[2,3-b]pyridin-3-yl)pyridin-2-amine]
- Ki: 10 to 100 nM

Structure (SMILES): Clc1cc(-c2c[nH]c3ncccc23)cc(NCC2CCCO2)n1 (stereo not drawn) [Example 13, 6-chloro-4-(1H-pyrrolo[2,3-b]pyridin-3-yl)-N-(tetrahydrofuran-2-ylmethyl)pyridin-2-amine]
- Ki: < 10 nM

Structure (SMILES): O[C@H]1CC[C@H](Nc2cc(-c3c[nH]c4ncccc34)cc(Cl)n2)CC1 [Example 14, Trans 4-{[6-chloro-4-(1H-pyrrolo[2,3-b]pyridin-3-yl)pyridin-2-yl]amino}cyclohexanol]
- Ki: < 10 nM

Structure (SMILES): NC1CCC(Nc2cc(-c3c[nH]c4ncccc34)cc(Cl)n2)CC1 (stereo not drawn) [Example 15, N-[6-chloro-4-(1H-pyrrolo[2,3-b]pyridin-3-yl)pyridin-2-yl]cyclohexane-1,4-diamine]
- Ki: < 10 nM

Structure (SMILES): COC1CCCCC1Nc1cc(-c2c[nH]c3ncccc23)cc(Cl)n1 (stereo not drawn) [Example 16, 6-chloro-N-(2-methoxycyclohexyl)-4-(1H-pyrrolo[2,3-b]pyridin-3-yl)pyridin-2-amine]
- Ki: 10 to 100 nM

Structure (SMILES): NC1CCCCC1Nc1cc(-c2c[nH]c3ncccc23)cc(Cl)n1 (stereo not drawn) [Example 17, N-[6-chloro-4-(1H-pyrrolo[2,3-b]pyridin-3-yl)pyridin-2-yl]cyclohexane-1,2-diamine]
- Ki: < 10 nM

Structure (SMILES): CC(C)(O)CNc1cc(-c2c[nH]c3ncccc23)cc(Cl)n1 [Example 18, 1-{[6-chloro-4-(1H-pyrrolo[2,3-b]pyridin-3-yl)pyridin-2-yl]amino}-2-methylpropan-2-ol]
- Ki: < 10 nM

Structure (SMILES): OCCCCNc1cc(-c2c[nH]c3ncccc23)cc(Cl)n1 [Example 19, 4-{[6-chloro-4-(1H-pyrrolo[2,3-b]pyridin-3-yl)pyridin-2-yl]amino}butan-1-ol]
- Ki: < 10 nM

Structure (SMILES): CC(C)(CO)CCCNc1cc(-c2c[nH]c3ncccc23)cc(Cl)n1 [Example 20]
- Ki: < 10 nM

Structure (SMILES): CS(=O)(=O)NC1CCC(Nc2cc(-c3c[nH]c4ncccc34)cc(Cl)n2)CC1 (stereo not drawn) [Example 21, N-(4-{[6-chloro-4-(1H-pyrrolo[2,3-b]pyridin-3-yl)pyridin-2-yl]amino}cyclohexyl)methanesulfonamide]
- Ki: < 10 nM

Structure (SMILES): CC(=O)NC1CCC(Nc2cc(-c3c[nH]c4ncccc34)cc(Cl)n2)CC1 (stereo not drawn) [Example 22, N-(4-{[6-chloro-4-(1H-pyrrolo[2,3-b]pyridin-3-yl)pyridin-2-yl]-amino}cyclohexyl)acetamide]
- Ki: < 10 nM

Structure (SMILES): NC1CCCC(Nc2cc(-c3c[nH]c4ncccc34)cc(Cl)n2)C1 (stereo not drawn) [Example 23, N-[6-chloro-4-(1H-pyrrolo[2,3-b]pyridin-3-yl)pyridin-2-yl]cyclohexane-1,3-diamine]
- Ki: < 10 nM

Structure (SMILES): CS(=O)(=O)NC1CCCC(Nc2cc(-c3c[nH]c4ncccc34)cc(Cl)n2)C1 (stereo not drawn) [Example 24, N-(3-{[6-chloro-4-(1H-pyrrolo[2,3-b]pyridin-3-yl)pyridin-2-yl]-amino}cyclohexyl)methanesulfonamide]
- Ki: < 10 nM

Structure (SMILES): Clc1cc(-c2c[nH]c3ncccc23)cc(NCC2CCOCC2)n1 [Example 25, 6-chloro-4-(1H-pyrrolo[2,3-b]pyridin-3-yl)-N-(tetrahydro-2H-pyran-4-ylmethyl)pyridin-2-amine]
- Ki: < 10 nM

Structure (SMILES): OC1CCCC(Nc2cc(-c3c[nH]c4ncccc34)cc(Cl)n2)C1 (stereo not drawn) [Example 26, 3-{[6-chloro-4-(1H-pyrrolo[2,3-b]pyridin-3-yl)pyridin-2-yl]amino}cyclohexanol]
- Ki: < 10 nM

Structure (SMILES): Clc1cc(-c2c[nH]c3ncccc23)cc(NCc2cccnc2)n1 [Example 27, 6-chloro-N-(pyridin-3-ylmethyl)-4-(1H-pyrrolo[2,3-b]pyridin-3-yl)pyridin-2-amine]
- Ki: < 10 nM

Structure (SMILES): Clc1cc(-c2c[nH]c3ncccc23)cc(NCC2CCCOC2)n1 (stereo not drawn) [Example 28, 6-chloro-4-(1H-pyrrolo[2,3-b]pyridin-3-yl)-N-(tetrahydro-2H-pyran-3-ylmethyl)pyridin-2-amine]
- Ki: 10 to 100 nM

Structure (SMILES): Clc1cc(-c2c[nH]c3ncccc23)cc(NCC2CCNC2)n1 (stereo not drawn) [Example 29, 6-chloro-N-(pyrrolidin-3-ylmethyl)-4-(1H-pyrrolo[2,3-b]pyridin-3-yl)pyridin-2-amine]
- Ki: < 10 nM

Structure (SMILES): Cc1cccc(CNc2cc(-c3c[nH]c4ncccc34)cc(Cl)n2)c1C [Example 30, 6-chloro-N-(2,3-dimethylbenzyl)-4-(1H-pyrrolo[2,3-b]pyridin-3-yl)pyridin-2-amine]
- Ki: 10 to 100 nM

Structure (SMILES): Clc1cc(-c2c[nH]c3ncccc23)cc(NCc2ccncc2)n1 [Example 31, 6-chloro-N-(pyridin-4-ylmethyl)-4-(1H-pyrrolo[2,3-b]pyridin-3-yl)pyridin-2-amine]
- Ki: 10 to 100 nM

Structure (SMILES): Clc1cc(-c2c[nH]c3ncccc23)cc(NCC2CCCCO2)n1 (stereo not drawn) [Example 32, 6-chloro-4-(1H-pyrrolo[2,3-b]pyridin-3-yl)-N-(tetrahydro-2H-pyran-2-ylmethyl)pyridin-2-amine]
- Ki: 10 to 100 nM

Structure (SMILES): Clc1cc(-c2c[nH]c3ncccc23)cc(NC2CCNCC2)n1 [Example 33, 6-chloro-N-piperidin-4-yl-4-(1H-pyrrolo[2,3-b]pyridin-3-yl)pyridin-2-amine]
- Ki: 10 to 100 nM

Structure (SMILES): COC1CCC(Nc2cc(-c3c[nH]c4ncccc34)cc(Cl)n2)CC1 (stereo not drawn) [Example 34, 6-chloro-N-(4-methoxycyclohexyl)-4-(1H-pyrrolo[2,3-b]pyridin-3-yl)pyridin-2-amine]
- Ki: 10 to 100 nM

Structure (SMILES): CC(=O)NC1CCCC(Nc2cc(-c3c[nH]c4ncccc34)cc(Cl)n2)C1 (stereo not drawn) [Example 35, N-(3-{[6-chloro-4-(1H-pyrrolo[2,3-b]pyridin-3-yl)pyridin-2-yl]amino}cyclohexyl)acetamide]
- Ki: 10 to 100 nM

Structure (SMILES): Fc1cc(Cl)ccc1CNc1cc(-c2c[nH]c3ncccc23)cc(Cl)n1 [Example 36, 6-chloro-N-(4-chloro-2-fluorobenzyl)-4-(1H-pyrrolo[2,3-b]pyridin-3-yl)pyridin-2-amine]
- Ki: 10 to 100 nM

Structure (SMILES): Clc1cc(-c2c[nH]c3ncccc23)cc(NCc2cccnc2Oc2cccnc2)n1 [Example 37, 6-chloro-N-{[2-(pyridin-3-yloxy)pyridin-3-yl]methyl}-4-(1H-pyrrolo[2,3-b]pyridin-3-yl)pyridin-2-amine]
- Ki: 10 to 100 nM

Structure (SMILES): Clc1cc(-c2c[nH]c3ncccc23)cc(NCC2CCCNC2)n1 (stereo not drawn) [Example 38, 6-chloro-N-(piperidin-3-ylmethyl)-4-(1H-pyrrolo[2,3-b]pyridin-3-yl)pyridin-2-amine]
- Ki: 10 to 100 nM
